# Measured values from ChEMBL document CHEMBL1157485, “Studies on the structure-activity relationship of bicifadine analogs as monoamine transporter inhibitors” (Bioorg Med Chem Lett, 2008).
# The source made the active and inactive calls. The calls are words filed in the database; no cut-off is given here.
# Experiments:
# [1] = molecular target: Sodium-dependent dopamine transporter (Rattus norvegicus, UniProt P23977); experiment: Inhibition of dopamine uptake at cloned DAT in rat brain synaptosome; assay type: tissue-based
# Chain of Sodium-dependent dopamine transporter (P23977 whole entry): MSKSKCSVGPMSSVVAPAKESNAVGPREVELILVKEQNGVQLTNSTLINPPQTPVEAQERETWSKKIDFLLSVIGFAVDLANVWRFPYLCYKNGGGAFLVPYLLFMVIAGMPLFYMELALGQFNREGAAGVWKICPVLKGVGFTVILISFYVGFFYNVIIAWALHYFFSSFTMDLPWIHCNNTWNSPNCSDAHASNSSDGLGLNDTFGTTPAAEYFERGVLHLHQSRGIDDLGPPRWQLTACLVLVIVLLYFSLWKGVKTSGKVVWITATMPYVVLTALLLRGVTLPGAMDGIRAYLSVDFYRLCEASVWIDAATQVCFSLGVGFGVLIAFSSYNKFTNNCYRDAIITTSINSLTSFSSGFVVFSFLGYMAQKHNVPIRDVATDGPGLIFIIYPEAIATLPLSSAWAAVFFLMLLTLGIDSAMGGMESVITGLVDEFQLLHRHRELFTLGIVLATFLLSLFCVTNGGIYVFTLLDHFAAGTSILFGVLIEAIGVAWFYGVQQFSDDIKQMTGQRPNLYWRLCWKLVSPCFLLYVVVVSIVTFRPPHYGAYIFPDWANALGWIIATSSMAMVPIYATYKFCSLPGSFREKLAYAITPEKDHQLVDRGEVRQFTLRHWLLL
# [2] = molecular target: Sodium-dependent serotonin transporter (Rattus norvegicus, UniProt P31652); experiment: Inhibition of serotonin uptake at SERT in rat brain synaptosome; assay type: tissue-based
# Chain of Sodium-dependent serotonin transporter (P31652 whole entry): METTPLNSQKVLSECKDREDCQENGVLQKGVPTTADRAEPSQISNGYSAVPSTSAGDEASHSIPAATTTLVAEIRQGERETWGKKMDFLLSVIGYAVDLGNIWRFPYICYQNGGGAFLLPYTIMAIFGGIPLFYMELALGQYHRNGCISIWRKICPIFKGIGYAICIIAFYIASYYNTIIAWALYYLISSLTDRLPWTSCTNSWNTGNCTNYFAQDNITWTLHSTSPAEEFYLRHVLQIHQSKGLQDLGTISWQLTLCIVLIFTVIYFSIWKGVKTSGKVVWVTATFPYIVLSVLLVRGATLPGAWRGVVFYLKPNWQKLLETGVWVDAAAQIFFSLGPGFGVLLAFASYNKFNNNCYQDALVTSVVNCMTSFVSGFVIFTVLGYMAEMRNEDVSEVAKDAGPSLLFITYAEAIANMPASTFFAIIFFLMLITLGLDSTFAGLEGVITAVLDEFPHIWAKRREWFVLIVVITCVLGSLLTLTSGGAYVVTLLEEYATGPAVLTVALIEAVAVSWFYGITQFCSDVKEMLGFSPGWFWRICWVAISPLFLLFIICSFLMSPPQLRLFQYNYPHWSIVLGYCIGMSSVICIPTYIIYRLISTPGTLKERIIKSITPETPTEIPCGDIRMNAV
# [3] = molecular target: Transporter (Rattus norvegicus, UniProt Q63380); experiment: Inhibition of norepinephrine uptake at NET in rat brain synaptosome; assay type: tissue-based
# Chain of Transporter (Q63380 whole entry): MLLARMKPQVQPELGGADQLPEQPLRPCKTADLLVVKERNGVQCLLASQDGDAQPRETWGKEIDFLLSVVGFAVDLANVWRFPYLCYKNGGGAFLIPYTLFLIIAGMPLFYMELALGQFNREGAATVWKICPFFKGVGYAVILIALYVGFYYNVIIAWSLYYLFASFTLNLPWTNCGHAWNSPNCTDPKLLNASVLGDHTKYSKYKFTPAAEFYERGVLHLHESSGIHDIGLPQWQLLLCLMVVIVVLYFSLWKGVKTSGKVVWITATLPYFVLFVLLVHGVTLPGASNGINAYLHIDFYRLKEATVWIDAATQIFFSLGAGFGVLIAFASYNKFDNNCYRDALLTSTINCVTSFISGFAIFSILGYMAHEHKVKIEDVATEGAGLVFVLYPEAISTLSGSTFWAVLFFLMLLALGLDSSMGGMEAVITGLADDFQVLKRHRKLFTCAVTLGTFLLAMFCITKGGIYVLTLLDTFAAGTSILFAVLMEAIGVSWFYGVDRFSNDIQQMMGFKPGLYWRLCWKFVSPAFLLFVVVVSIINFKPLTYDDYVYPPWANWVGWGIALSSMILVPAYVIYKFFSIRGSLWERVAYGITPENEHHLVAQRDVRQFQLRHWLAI
# [4] = test system: Mus musculus; experiment: Antinociceptive activity in formalin-treated mouse model of persistent pain assessed as reduction in licking time at 60 mg/kg; assay type: functional
# [5] = test system: Mus musculus; experiment: Antinociceptive activity in formalin-treated mouse model of persistent pain assessed as reduction in number of hind paws flinches at 30 mg/kg; assay type: functional; design: scale not given: the % may be the effect or the level left
# [6] = Apparent permeability across human CaCo2 cells; assay type: ADME, cell-based; details: Caco-2
# [7] = Efflux ratio in human CaCo2 cells; assay type: ADME, cell-based; details: Caco-2
SMILES,IC50 [1],IC50 [2],IC50 [3],Activity [4],Activity [5],Papp [6],efflux ratio [7]
Brc1ccc(C23CNCC2C3)s1 (stereo not given),2.4 µM,140 nM,190 nM,,,,
c1ccc2cc(C34CNCC3C4)ccc2c1 (stereo not given),0.19 µM,50 nM,36 nM,,,,
CCOc1ccccc1O[C@@H](c1ccccc1)[C@@H]1CNCCO1,,,,inactive,,,
c1cc([C@@]23CNC[C@@H]2C3)cs1,8.2 µM,6800 nM,300 nM,,,,
O=C1NCC2CC12c1cccs1 (stereo not given),> 10 µM,> 10000 nM,> 10000 nM,,,,
Clc1cc(Cl)c(C23CNCC2C3)s1 (stereo not given),> 10 µM,4200 nM,5300 nM,,,,
c1ccc(C23CNCC2C3)cc1 (stereo not given),2.7 µM,5200 nM,350 nM,,,,
c1csc([C@@]23CNC[C@@H]2C3)c1,6.2 µM,4900 nM,150 nM,,,,
FC(F)(F)c1ccc(C23CNCC2C3)s1 (stereo not given),> 10 µM,190 nM,3100 nM,,,,
Clc1ccc([C@@]23CNC[C@@H]2C3)s1,2.5 µM,1300 nM,590 nM,,,,
c1csc(C23CNCC2C3)c1 (stereo not given),7.5 µM,4500 nM,130 nM,,,,
C[C@@H]1NC[C@@]2(c3cccs3)C[C@@H]12 (relative stereo),9.5 µM,6000 nM,560 nM,,,,
CC1(C)C2CNCC21c1ccccc1 (stereo not given),> 10 µM,1800 nM,7200 nM,,,,
Fc1ccc([C@]23CNC[C@H]2C3)s1,> 10 µM,8100 nM,470 nM,,,,
Fc1ccc2sc([C@]34CNC[C@H]3C4)cc2c1,0.42 µM,33 nM,67 nM,,,,
CN1CC2CC2(c2cccs2)C1 (stereo not given),> 10 µM,6300 nM,1600 nM,,,,
Brc1ccc([C@@]23CNC[C@@H]2C3)s1,8.2 µM,380 nM,340 nM,,,,
C[C@H]1NC[C@@]2(c3cccs3)C[C@@H]12 (relative stereo),3.4 µM,7600 nM,320 nM,,,,
c1csc([C@]23CNC[C@H]2C3)c1,2.4 µM,1900 nM,92 nM,,40%,17.6 ×10⁻⁶ cm/s,0.7

SMILES,IC50 [1],IC50 [2],IC50 [3],Activity [4],Activity [5],Papp [6],efflux ratio [7]
Clc1ccc(C23CNCC2C3)s1 (stereo not given),3.3 µM,190 nM,130 nM,,,,
c1ccc(-c2ccc(C34CNCC3C4)cc2)cc1 (stereo not given),2.3 µM,160 nM,360 nM,,,,
c1ccc2c(C34CNCC3C4)csc2c1 (stereo not given),0.78 µM,73 nM,220 nM,,,,
Cc1ccc(C23CNCC2C3)cc1 (stereo not given) [BICIFADINE],,,,89%,,,
c1ccc([C@@H]2[C@H]3CNC[C@]32c2ccccc2)cc1,8.7 µM,240 nM,120 nM,,,,
FC12CNCC1(c1ccccc1)C2 (stereo not given),> 10 µM,2900 nM,1800 nM,,,,
c1ccc2oc(C34CNCC3C4)cc2c1 (stereo not given),0.33 µM,140 nM,48 nM,,,,
c1cc2c(cc1[C@@]13CNC[C@@H]1C3)CCC2,> 10 µM,97 nM,2000 nM,,,,
C[C@H]1[C@H]2CNC[C@]21c1ccc(Cl)c(Cl)c1 (relative stereo),0.5 µM,200 nM,500 nM,,,,
Clc1ccc([C@@]23CNC[C@@H]2[C@H]3c2ccccc2)cc1Cl (relative stereo),0.36 µM,350 nM,34 nM,,,,
c1cc2c(cc1C13CNCC1C3)OCO2 (stereo not given),> 10 µM,1500 nM,3500 nM,,,,
C[C@H]1NC[C@@H]2C[C@@]21c1cccs1 (relative stereo),8.9 µM,5800 nM,150 nM,,,,
c1ccc2sc(C34CNCC3C4)cc2c1 (stereo not given),0.18 µM,71 nM,53 nM,,,,
Clc1ccc([C@]23CNC[C@H]2C3)s1,1.5 µM,81 nM,77 nM,,,,
Cc1csc(C23CNCC2C3)c1 (stereo not given),> 10 µM,> 10000 nM,6800 nM,,,,
c1cnc2ccc(C34CNCC3C4)cc2c1 (stereo not given),3.9 µM,640 nM,1400 nM,,,,
c1cc2c(cc1[C@@]13CNC[C@@H]1C3)CCO2,9.1 µM,610 nM,4800 nM,,,,
C[C@@H]1[C@H]2CNC[C@@]12c1ccc(Cl)c(Cl)c1 (relative stereo),0.4 µM,190 nM,29 nM,,,,
